Data on 1 compound can be found in ChEMBL document CHEMBL1159002, “Westiellamide, a bistratamide-related cyclic peptide from the blue-green alga Westiellopsis prolifica” (J Nat Prod, 1992).

Common to all, as to assay type: functional, cell-based
The test system of one experiment is L1210. Put plainly: Cytotoxicity against mouse L1210 cells by agar disk diffusion assay. On the technique in general: In agar diffusion tests the substance spreads into inoculated agar from a disc or well.
The test system of another experiment is KB. The experiment in a line: Cytotoxicity against human KB cells at 2 ug/ml.
Another experiment has as its system LoVo. Put plainly: Cytotoxicity against human LoVo cells at 2 ug/ml.

The source made the active and inactive calls. The rule behind the calls is not given here.

As to `CC(C)[C@@H]1NC(=O)[C@H]2N=C(O[C@@H]2C)[C@H](C(C)C)NC(=O)[C@H]2N=C(O[C@@H]2C)[C@H](C(C)C)NC(=O)[C@H]2N=C1O[C@@H]2C`, in the experiment on L1210, the result was inactive. Also, the outcome with KB and in the experiment on LoVo was Active.
